# Key:
# [1] = target: T1, hNav1.7 (Homo sapiens, UniProt Q15858); experiment: Tritiated sulfonamide competitive binding to membranes from cells expressing hNav1.7 and the β1 subunit (LBA); conditions: competition with 100 pM [3H]compound, 18 h, room temperature; read-out: Nav1.7 (LBA)
# T1 construct: expressed in transfected cells
# Procedure: Tritiated Sulfonamide Binding to Membranes Isolated from Cells that Heterologously Express hNav1.7 and the β1 Subunit
# Preparation of membranes containing recombinantly expressed sodium channels: Frozen recombinant cell pellets were thawed on ice and diluted to 4 times the cell pellet weight with ice cold 50 mM Tris HCl, pH 7.4 buffer. The cell suspensions were homogenized on ice using a motorized glass dounce homogenizer. Homogenates were further diluted 8.4 times with ice cold 50 mM Tris HCl, pH 7.4 buffer and then centrifuged at 200×g at 4° C. for 15 min. The supernatants were collected and centrifuged at 10000×g at 4° C. for 50 min. The pellets were then re-suspended in 100 mM NaCl, 20 mM Tris HCl, pH 7.4 buffer containing 1% v/v protease inhibitors (Calbiochem) and re-homogenized on ice. The homogenized membranes were then processed through a syringe equipped with a 26 gauge needle. Protein concentrations were determined by Bradford Assay and the membranes were stored at −80° C.
# Saturation experiments. A competitive NaV1.7 inhibitor having a methyl group was tritiated. Three tritiums were incorporated in place of methyl hydrogens to generate [^3H]compound. Binding of this radioligand was preformed in 5 mL borosilicate glass test tubes at room temperature. Binding was initiated by adding membranes to increasing concentrations of [^3H]compound in 100 mM NaCl, 20 mM Tris HCl, pH 7.4 buffer containing 0.01% w/v bovine serum albumin (BSA) for 18 h. Non-specific binding was determined in the presence of 1 μM unlabelled compound. After 18 h, the reactants were filtered through GF/C glass fiber filters presoaked in 0.5% w/v polyethylene imine. Filters were washed with 15 mL ice cold 100 mM NaCl, 20 mM Tris HCl, pH 7.4 buffer containing 0.25% BSA to separate bound from free ligand. [^3H]compound bound to filters was quantified by liquid scintillation counting.
# Binding reactions were performed in 96-well polypropylene plates at room temperature for 18 h. In 360 μL, membranes were incubated with 100 pM [^3H]compound and increasing concentrations of Test Compound. Non-specific binding was defined in the presence of 1 μM unlabelled compound. Reactions were transferred and filtered through 96-well glass fiber/C filter plates presoaked with 0.5% polyethylene imine. The filtered reactions were washed 5 times with 200 μL ice cold buffer containing 0.25% BSA. Bound radioactivity was determined by liquid scintillation counting.
# Data Analysis: For saturation experiments, non-specific binding was subtracted from total binding to provide specific binding and these values were recalculated in terms of pmol ligand bound per mg protein. Saturation curves were constructed and dissociation constants were calculated using the single site ligand binding model: Beq=(Bmax*X)/(X+Kd), where Beq is the amount of ligand bound at equilibrium, Bmax is the maximum receptor density, Kd is the dissociation constant for the ligand, and X is the free ligand concentration. For competition studies percent inhibition was determined and IC50 values were calculated using a 4 parameter logistic model (% inhibition=(A+((B−A)/(1+((x/C)^D)))) using XLfit, where A and B are the maximal and minimum inhibition respectively, C is the IC50 concentration and D is the (Hill) slope.
# [2] = target: T2, NaV1.7 (Homo sapiens, UniProt Q15858); experiment: Patch voltage clamp electrophysiology assay (EP), NaV1.7 in HEK-293 cells; format: cell-based; conditions: HEK-293, β1 coexpressed, held at -60 mV (inactivated state)
# T2 construct: expression vector containing the full-length cDNA coding for the desired human sodium channel α-subunit; expressed in transfected cells; host or cells: HEK-293
# Description: (§1) Electrophysiological Assay (EP) (In Vitro Assay)
# (§2) Patch voltage clamp electrophysiology allows for the direct measurement and quantification of block of voltage-gated sodium channels (NaV's), and allows the determination of the time- and voltage-dependence of block which has been interpreted as differential binding to the resting, open, and inactivated states of the sodium channel (Hille, B., Journal of General Physiology (1977), 69: 497-515).
# (§3) The following patch voltage clamp electrophysiology studies were performed on representative compounds of the invention using human embryonic kidney cells (HEK), permanently transfected with an expression vector containing the full-length cDNA coding for the desired human sodium channel α-subunit, grown in culture media containing 10% FBS, 1% PSG, and 0.5 mg/mL G418 at 37° C. with 5% CO2. […] NaV1.7 and NaV1.5 cDNAs (NM_002977 and AC137587; SCN5A, respectively) were stably expressed in HEK-293 cells. The β1 subunit was coexpressed in both the NaV1.7 and NaV1.5 cell lines.
# (§4) Sodium currents were measured using the patch clamp technique in the whole-cell configuration using either a PatchXpress automated voltage clamp or manually using an Axopatch 200B (Axon Instruments) or Model 2400 (A-M systems) amplifier. The manual voltage clamp protocol was as follows: Borosilicate glass micropipettes were fire-polished to a tip diameter yielding a resistance of 2-4 Mohms in the working solutions. The pipette was filled with a solution comprised of: 5 mM NaCl, 10 mM CsCl, 120 mM CsF, 0.1 mM CaCl2, 2 mM MgCl2, 10 mM HEPES, 10 mM EGTA; and adjusted to pH 7.2 with CsOH. The external solution had the following composition: 140 mM NaCl, 5 mM KCl, 2 mM CaCl2, 1 mM MgCl2, 10 mM HEPES; and adjusted to pH 7.4 with NaOH. In some studies, the external sodium was reduced by equimolar replacement with choline. Osmolarity in the CsF internal and NaCl external solutions was adjusted to 300 mOsm/kg and 310 mOsm/kg with glucose, respectively. All recordings were performed at ambient temperature in a bath chamber with a volume of 150 μL. Control sodium currents were measured in 0.5% DMSO. Controls and representative compounds of the invention were applied to the recording chamber through a 4-pinch or 8-pinch valve bath perfusion system manufactured by ALA Scientific Instruments.
# (§5) Currents were recorded at 40 kHz sampling frequency, filtered at […], and stored using a Digidata-1322A analogue/digital interface with the pClamp software (Axon Instruments). Series resistance compensation was applied (60-80%). […] All statistics in this study are given as mean±SD.
# (§6) The membrane potential was maintained at a voltage where inactivation of the channel is complete (which was −60 mV for both NaV1.7 and NaV1.5). The voltage is then stepped back to a very negative (Vhold=[…]) voltage for 20 ms and then a test pulse is applied to quantify the compound block. The 20 ms brief repolarization was long enough for compound-free channels to completely recover from fast inactivation, but the compound-bound channels recovered more slowly such that negligible recovery could occur during this interval. The percent decrease in sodium current following wash-on of compound was taken as the percent block of sodium channels.
# [3] = target: T3, NaV1.5 (Homo sapiens, UniProt Q14524); experiment: Patch voltage clamp electrophysiology assay (EP), NaV1.5 in HEK-293 cells; format: cell-based; conditions: HEK-293, β1 coexpressed, held at -60 mV (inactivated state)
# T3 construct: expression vector containing the full-length cDNA coding for the desired human sodium channel α-subunit; expressed in transfected cells; host or cells: HEK-293
# Description: as §1, §2, §3, §4, §5, §6
# T2 sequence (Q15858 1-1977 isoform Q15858-3): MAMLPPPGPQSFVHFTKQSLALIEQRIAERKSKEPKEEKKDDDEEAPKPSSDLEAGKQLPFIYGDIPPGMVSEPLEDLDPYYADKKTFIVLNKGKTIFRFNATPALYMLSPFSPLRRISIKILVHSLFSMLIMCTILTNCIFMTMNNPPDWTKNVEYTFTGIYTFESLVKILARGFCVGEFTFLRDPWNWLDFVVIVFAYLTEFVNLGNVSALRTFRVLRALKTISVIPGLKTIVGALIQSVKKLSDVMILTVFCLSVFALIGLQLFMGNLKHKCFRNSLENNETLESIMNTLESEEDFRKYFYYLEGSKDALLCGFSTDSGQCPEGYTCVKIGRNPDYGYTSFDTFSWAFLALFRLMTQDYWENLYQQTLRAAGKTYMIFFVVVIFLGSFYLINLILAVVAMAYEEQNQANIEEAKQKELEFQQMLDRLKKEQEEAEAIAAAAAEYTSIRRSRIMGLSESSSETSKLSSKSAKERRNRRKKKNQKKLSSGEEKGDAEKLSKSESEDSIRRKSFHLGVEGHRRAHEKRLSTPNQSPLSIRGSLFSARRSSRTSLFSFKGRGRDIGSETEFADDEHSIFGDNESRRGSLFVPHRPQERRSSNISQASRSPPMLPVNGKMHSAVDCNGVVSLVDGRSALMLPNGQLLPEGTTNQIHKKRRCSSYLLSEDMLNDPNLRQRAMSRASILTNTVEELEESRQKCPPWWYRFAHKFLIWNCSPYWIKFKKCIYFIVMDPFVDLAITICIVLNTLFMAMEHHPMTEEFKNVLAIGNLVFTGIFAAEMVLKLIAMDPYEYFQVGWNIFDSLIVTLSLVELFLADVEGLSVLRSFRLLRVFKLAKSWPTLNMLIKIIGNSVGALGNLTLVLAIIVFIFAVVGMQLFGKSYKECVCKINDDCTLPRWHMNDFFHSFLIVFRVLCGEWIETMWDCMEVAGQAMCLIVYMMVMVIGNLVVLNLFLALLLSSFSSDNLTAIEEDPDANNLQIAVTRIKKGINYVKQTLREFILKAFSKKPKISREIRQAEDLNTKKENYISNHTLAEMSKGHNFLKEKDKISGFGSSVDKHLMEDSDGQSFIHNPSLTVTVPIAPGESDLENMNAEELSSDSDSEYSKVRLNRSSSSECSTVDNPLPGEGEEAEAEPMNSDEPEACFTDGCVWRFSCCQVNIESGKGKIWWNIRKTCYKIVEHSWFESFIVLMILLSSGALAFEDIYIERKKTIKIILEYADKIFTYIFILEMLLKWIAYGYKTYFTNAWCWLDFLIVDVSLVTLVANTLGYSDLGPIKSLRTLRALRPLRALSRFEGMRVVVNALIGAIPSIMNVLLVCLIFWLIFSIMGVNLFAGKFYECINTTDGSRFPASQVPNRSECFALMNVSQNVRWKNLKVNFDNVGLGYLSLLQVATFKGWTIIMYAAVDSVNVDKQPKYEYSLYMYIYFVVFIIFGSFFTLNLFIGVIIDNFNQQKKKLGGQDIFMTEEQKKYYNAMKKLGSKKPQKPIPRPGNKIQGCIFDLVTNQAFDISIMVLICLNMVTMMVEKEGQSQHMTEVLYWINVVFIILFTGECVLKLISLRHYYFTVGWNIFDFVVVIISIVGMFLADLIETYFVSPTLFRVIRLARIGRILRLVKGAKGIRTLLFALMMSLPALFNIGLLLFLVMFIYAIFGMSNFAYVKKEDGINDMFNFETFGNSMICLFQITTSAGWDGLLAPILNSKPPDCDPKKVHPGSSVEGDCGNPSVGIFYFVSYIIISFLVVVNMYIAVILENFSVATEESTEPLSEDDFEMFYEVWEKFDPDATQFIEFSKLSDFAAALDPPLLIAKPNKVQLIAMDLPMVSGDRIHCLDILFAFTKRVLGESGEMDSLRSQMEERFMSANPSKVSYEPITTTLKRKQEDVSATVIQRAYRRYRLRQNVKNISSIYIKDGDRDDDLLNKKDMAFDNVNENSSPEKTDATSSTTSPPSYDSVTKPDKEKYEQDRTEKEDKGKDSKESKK
# T2 sequence (Q07699 19-218 partner): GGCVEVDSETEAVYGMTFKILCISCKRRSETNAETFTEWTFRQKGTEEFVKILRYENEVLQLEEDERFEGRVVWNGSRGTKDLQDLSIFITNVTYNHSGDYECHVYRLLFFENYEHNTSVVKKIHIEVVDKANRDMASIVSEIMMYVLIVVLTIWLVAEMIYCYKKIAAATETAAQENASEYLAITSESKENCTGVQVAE
# T1 sequence (Q15858 1-1977 isoform Q15858-3): as the sequence (Q15858 1-1977 isoform Q15858-3) above
# T1 sequence (Q07699 19-218 partner): as the sequence (Q07699 19-218 partner) above
# T3 sequence (Q14524 whole entry): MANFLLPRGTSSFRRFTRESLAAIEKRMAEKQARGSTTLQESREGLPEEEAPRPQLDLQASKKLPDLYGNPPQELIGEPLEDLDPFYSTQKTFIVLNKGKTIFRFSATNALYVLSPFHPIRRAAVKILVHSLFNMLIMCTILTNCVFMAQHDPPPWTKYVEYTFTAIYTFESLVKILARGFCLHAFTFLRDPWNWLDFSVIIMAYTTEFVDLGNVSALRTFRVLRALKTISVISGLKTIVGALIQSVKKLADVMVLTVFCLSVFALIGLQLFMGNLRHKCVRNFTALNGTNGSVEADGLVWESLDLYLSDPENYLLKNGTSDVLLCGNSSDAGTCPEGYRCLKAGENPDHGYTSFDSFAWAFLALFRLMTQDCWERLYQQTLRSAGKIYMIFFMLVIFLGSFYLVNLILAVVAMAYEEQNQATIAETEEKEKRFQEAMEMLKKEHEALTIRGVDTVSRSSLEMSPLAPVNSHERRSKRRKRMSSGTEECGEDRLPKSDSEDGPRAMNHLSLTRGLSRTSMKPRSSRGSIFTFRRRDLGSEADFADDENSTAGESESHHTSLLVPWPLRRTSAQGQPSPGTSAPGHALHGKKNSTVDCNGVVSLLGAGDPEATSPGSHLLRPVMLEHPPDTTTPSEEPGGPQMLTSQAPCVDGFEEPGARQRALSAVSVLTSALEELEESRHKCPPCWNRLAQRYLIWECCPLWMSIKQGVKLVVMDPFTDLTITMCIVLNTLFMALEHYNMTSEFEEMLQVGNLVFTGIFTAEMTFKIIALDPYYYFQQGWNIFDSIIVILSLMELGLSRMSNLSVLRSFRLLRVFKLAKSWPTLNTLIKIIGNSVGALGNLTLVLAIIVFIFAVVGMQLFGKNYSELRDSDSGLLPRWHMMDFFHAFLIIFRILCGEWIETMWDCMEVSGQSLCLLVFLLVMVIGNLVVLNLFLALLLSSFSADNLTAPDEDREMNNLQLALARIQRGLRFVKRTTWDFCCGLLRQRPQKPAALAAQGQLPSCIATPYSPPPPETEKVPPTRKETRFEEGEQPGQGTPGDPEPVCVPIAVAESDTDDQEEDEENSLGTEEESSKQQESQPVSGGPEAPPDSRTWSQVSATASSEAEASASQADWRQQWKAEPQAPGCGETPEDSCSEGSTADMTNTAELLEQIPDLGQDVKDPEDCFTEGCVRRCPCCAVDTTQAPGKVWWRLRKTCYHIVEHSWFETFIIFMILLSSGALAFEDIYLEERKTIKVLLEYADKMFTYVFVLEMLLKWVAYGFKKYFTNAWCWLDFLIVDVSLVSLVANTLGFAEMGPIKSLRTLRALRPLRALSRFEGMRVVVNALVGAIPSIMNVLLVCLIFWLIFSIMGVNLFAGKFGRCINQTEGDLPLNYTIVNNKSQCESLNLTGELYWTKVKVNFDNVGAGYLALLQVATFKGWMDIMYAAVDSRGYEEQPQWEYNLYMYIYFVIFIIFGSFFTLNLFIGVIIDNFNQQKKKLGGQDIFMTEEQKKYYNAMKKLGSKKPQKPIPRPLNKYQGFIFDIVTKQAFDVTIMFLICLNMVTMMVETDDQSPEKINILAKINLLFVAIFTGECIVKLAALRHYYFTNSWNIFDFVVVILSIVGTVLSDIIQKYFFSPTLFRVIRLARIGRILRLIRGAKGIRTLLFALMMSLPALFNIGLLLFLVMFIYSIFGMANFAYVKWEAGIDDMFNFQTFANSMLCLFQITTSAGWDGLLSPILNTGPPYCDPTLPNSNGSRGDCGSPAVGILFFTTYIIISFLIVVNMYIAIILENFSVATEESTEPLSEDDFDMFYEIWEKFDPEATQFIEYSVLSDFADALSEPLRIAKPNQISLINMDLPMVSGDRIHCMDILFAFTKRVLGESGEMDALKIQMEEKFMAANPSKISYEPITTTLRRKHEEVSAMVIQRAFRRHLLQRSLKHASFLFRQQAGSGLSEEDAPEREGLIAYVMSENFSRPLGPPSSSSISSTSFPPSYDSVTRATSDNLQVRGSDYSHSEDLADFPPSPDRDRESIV
SMILES,IC50 [1] [nM],IC50 [2] [nM],IC50 [3] [nM],"IC50 ([3]; human, pH 7.4) [nM]"
"Cc1nn(C2CCN(Cc3cc(C(F)(F)F)cc(Cl)c3F)CC2)c2cc(F)c(C(=O)NS(C)(=O)=O)cc12 [Example 1, 1-(1-(3-chloro-2-fluoro-5-(trifluoromethyl)benzyl)piperidin-4-yl)-6-fluoro-3-methyl-N-(methylsulfonyl)-1H-indazole-5-carboxamide 2,2,2-trifluoroacetate]",34,680,22000,–
"Cc1nn(C2CCN(Cc3cc(C(F)(F)F)cc(Cl)c3F)CC2)c2cc(F)c(C(=O)NS(=O)(=O)C3CC3)cc12 [Example 2, 1-(1-(3-chloro-2-fluoro-5-(trifluoromethyl)benzyl)piperidin-4-yl)-N-(cyclopropylsulfonyl)-6-fluoro-3-methyl-1H-indazole-5-carboxamide 2,2,2-trifluoroacetate]",13,86,4900,–
"Cc1nn(C2CCN(Cc3cc(C(F)(F)F)cc(Cl)c3F)CC2)c2cc(F)c(C(=O)NS(=O)(=O)N3CCC3)cc12 [Example 3, N-(azetidin-1-ylsulfonyl)-1-(1-(3-chloro-2-fluoro-5-(trifluoromethyl)benzyl)piperidin-4-yl)-6-fluoro-3-methyl-1H-indazole-5-carboxamide 2,2,2-trifluoroacetate]",33,250,7400,–
"Cc1nn(C2CCN(Cc3cc(Cl)cc(OC(F)(F)F)c3)CC2)c2cc(F)c(C(=O)NS(C)(=O)=O)cc12 [Example 4, 1-(1-(3-chloro-5-(trifluoromethoxy)benzyl)piperidin-4-yl)-6-fluoro-3-methyl-N-(methylsulfonyl)-1H-indazole-5-carboxamide 2,2,2-trifluoroacetate]",24,420,26000,–
"Cc1nn(C2CCN(Cc3cc(Cl)cc(OC(F)(F)F)c3)CC2)c2cc(F)c(C(=O)NS(=O)(=O)C3CC3)cc12 [Example 5, 1-(1-(3-chloro-5-(trifluoromethoxy)benzyl)piperidin-4-yl)-N-(cyclopropylsulfonyl)-6-fluoro-3-methyl-1H-indazole-5-carboxamide]",6,51,2400,–
"Cc1nn(C2CCN(Cc3cc(Cl)cc(Cl)c3)CC2)c2cc(F)c(C(=O)NS(=O)(=O)C3CC3)cc12 [Example 6, N-(cyclopropylsulfonyl)-1-(1-(3,5-dichlorobenzyl)piperidin-4-yl)-6-fluoro-3-methyl-1H-indazole-5-carboxamide 2,2,2-trifluoroacetate]",14,72,7000,–
"Cc1nn(C2CCN(Cc3cc(OC(F)(F)F)ccc3Br)CC2)c2cc(F)c(C(=O)NS(=O)(=O)C3CC3)cc12 [Example 7, 1-(1-(2-bromo-5-(trifluoromethoxy)benzyl)piperidin-4-yl)-N-(cyclopropylsulfonyl)-6-fluoro-3-methyl-1H-indazole-5-carboxamide 2,2,2-trifluoroacetate]",5,9,630,–
"Cc1nn(-c2ccc3c(c2)CCCC3)c2cc(F)c(C(=O)NS(=O)(=O)N3CCC3)cc12 [Example 25, N-(azetidin-1-ylsulfonyl)-6-fluoro-3-methyl-1-(5,6,7,8-tetrahydronaphthalen-2-yl)-1H-indazole-5-carboxamide]",260,44,–,–
"Cc1nn(-c2ccc3c(c2)CCCC3)c2cc(F)c(C(=O)NS(C)(=O)=O)cc12 [Example 26, 6-fluoro-3-methyl-N-(methylsulfonyl)-1-(5,6,7,8-tetrahydronaphthalen-2-yl)-1H-indazole-5-carboxamide]",100,160,–,–
"Cc1nn(C2CCC(C(C)(C)C)CC2)c2cc(F)c(C(=O)NS(=O)(=O)N3CCC3)cc12 (stereo not shown) [Example 27, N-(azetidin-1-ylsulfonyl)-1-(4-(tert-butyl)cyclohexyl)-6-fluoro-3-methyl-1H-indazole-5-carboxamide]",23,140,–,–
"Cc1nn(C2CCC(C(C)(C)C)CC2)c2cc(F)c(C(=O)NS(C)(=O)=O)cc12 (stereo not shown) [Example 28, 1-(4-(tert-butyl)cyclohexyl)-6-fluoro-3-methyl-N-(methylsulfonyl)-1H-indazole-5-carboxamide]",47,320,–,–
"Cc1nn(C2CCC(C)CC2)c2cc(F)c(C(=O)NS(=O)(=O)N3CCC3)cc12 (stereo not shown) [Example 29, N-(azetidin-1-ylsulfonyl)-6-fluoro-3-methyl-1-(4-methylcyclohexyl)-1H-indazole-5-carboxamide]",350,1000,–,–
"Cc1nn(C2CCC(C(C)C)CC2)c2cc(F)c(C(=O)NS(=O)(=O)N3CCC3)cc12 (stereo not shown) [Example 30, N-(azetidin-1-ylsulfonyl)-6-fluoro-1-(4-isopropylcyclohexyl)-3-methyl-1H-indazole-5-carboxamide]",25,39,–,–
"Cc1nn(C2CCC(C)CC2)c2cc(F)c(C(=O)NS(C)(=O)=O)cc12 (stereo not shown) [Example 31, 6-fluoro-3-methyl-1-(4-methylcyclohexyl)-N-(methylsulfonyl)-1H-indazole-5-carboxamide]",340,2000,–,–
"Cc1nn(C2CCOCC2)c2cc(F)c(C(=O)NS(=O)(=O)N3CCC3)cc12 [Example 32, N-(azetidin-1-ylsulfonyl)-6-fluoro-3-methyl-1-(tetrahydro-2H-pyran-4-yl)-1H-indazole-5-carboxamide]",–,–,–,≥ 30000
"Cc1nn(C2CCOCC2)c2cc(F)c(C(=O)NS(C)(=O)=O)cc12 [Example 34, 6-fluoro-3-methyl-N-(methylsulfonyl)-1-(tetrahydro-2H-pyran-4-yl)-1H-indazole-5-carboxamide]",–,–,–,≥ 30000
